Test results as given in patent US20230295118A1 (EnhancedBio Inc., priority 2022, published 2023).

Legend:
Format in all cases: cell-based
[1] = biological target: T1, CDK6 (Homo sapiens, UniProt Q00534); experiment: CDK6 degradation (DC50, Dmax)
T1 construct: endogenous in cells

[2] = biological target: T2, CDK4 (Homo sapiens, UniProt P11802); experiment: CDK4 degradation (DC50, Dmax)
T2 construct: endogenous in cells

[3] = tested on: mantle cell lymphoma cell (Mino or JeKo-1); experiment: Antiproliferative effect, MTS cell viability assay; details: 72 h; for IC50: mantle cell lymphoma cell (Mino or JeKo-1), MTS assay, read-out: IC50 (anti-proliferation)
In short: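 MTS read-out (formazan absorbance at 490 nm) after 72 h exposure of Mino cells to 0–1 μM compound (0.0001, 0.001, 0.01, 0.1, 1 μM). Palbociclib and abemaciclib served as positive controls.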

T1 sequence (Q00534 whole entry): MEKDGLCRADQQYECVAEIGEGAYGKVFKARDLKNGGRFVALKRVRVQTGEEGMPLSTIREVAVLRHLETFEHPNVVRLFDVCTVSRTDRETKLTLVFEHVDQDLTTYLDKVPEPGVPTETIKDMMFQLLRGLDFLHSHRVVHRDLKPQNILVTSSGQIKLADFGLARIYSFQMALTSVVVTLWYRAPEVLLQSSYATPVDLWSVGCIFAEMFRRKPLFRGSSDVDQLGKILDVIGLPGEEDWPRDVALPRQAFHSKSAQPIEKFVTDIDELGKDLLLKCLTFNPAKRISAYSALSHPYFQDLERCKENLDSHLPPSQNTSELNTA
T2 sequence (P11802 whole entry): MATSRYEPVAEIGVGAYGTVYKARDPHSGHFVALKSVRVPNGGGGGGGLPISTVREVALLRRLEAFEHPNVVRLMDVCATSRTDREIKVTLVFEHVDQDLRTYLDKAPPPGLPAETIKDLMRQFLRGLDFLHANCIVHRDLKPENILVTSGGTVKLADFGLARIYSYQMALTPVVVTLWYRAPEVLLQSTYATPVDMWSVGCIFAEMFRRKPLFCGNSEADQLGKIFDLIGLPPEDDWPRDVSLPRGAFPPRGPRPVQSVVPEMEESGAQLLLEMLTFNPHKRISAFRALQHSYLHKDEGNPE

SMILES	DC50 [1]	Dmax [1]	DC50 [2]	Dmax [2]	IC50 [3]	inhibition of cell proliferation of Mino cells ([3]; Mino cells, 0-1 μM, result in words)
CC(=O)c1c(C)c2cnc(Nc3ccc(N4CCN(CCCNc5cc6c(cc5F)C(=O)N(C5CCC(=O)NC5=O)C6)CC4)cn3)nc2n(C2CCCC2)c1=O (stereo not drawn) [Compound 52, 3-(5-((3-(4-(6-((6-acetyl-8-cyclopentyl-5-methyl-7-oxo-7,8-dihydropyrido[2,3-d]pyrimidin-2-yl)amino)pyridin-3-yl)piperazin-1-yl)propyl)amino)-6-fluoro-1-oxoisoindolin-2-yl) piperidine-2,6-dione]	0.05 to 0.2 µM	> 80%	0.05 to 0.2 µM	> 80%	< 0.05 µM	–
CC(=O)c1c(C)c2cnc(Nc3ccc(N4CCN(CC5CCN(C(=O)N6CCN(c7ccc8c(c7)CN(C7CCC(=O)NC7=O)C8=O)CC6)CC5)CC4)cn3)nc2n(C2CCCC2)c1=O (stereo not drawn) [Compound 32, 3-(5-(4-(4-((4-(6-((6-acetyl-8-cyclopentyl-5-methyl-7-oxo-7,8-dihydropyrido[2,3-d]pyrimidin-2-yl)amino)pyridin-3-yl)piperazin-1 - yl)methyl)piperidine-1-carbonyl)piperazin-1-yl)-1-oxoisoindolin-2-yl)piperidine-2,6-dione]	0.05 to 0.2 µM	> 60%	0.05 to 0.2 µM	> 60%	0.05 to 0.2 µM	–
CC(=O)c1c(C)c2cnc(Nc3ccc(N4CCN(C(=O)N5CCC(CC6CCN(c7ccc8c(c7)C(=O)N(C7CCC(=O)NC7=O)C8=O)CC6)CC5)CC4)cn3)nc2n(C2CCCC2)c1=O (stereo not drawn) [Compound 13, 5-(4-((1-(4-(6-((6-acetyl-8-cyclopentyl-5-methyl-7-oxo-7,8-dihydropyrido[2,3-d]pyrimidin-2-yl)amino)pyridin-3-yl)piperazine-1-carbonyl)piperidin-4-yl)methyl)piperidin-1-yl)-2-(2,6-dioxopiperidin-3-yl)isoindoline-1,3-dione]	0.05 to 0.2 µM	> 60%	0.05 to 0.2 µM	> 60%	0.05 to 0.2 µM	–
Cc1nc2c(F)cc(-c3nc(Nc4ccc(CN5CCN(CCNc6cccc7c6C(=O)N(C6CCC(=O)NC6=O)C7=O)CC5)cn4)ncc3F)cc2n1C(C)C (stereo not drawn) [Compound 92, 2-(2,6-dioxopiperidin-3-yl)-4-((2-(4-((6-((5-fluoro-4-(4-fluoro-1 isopropyl-2-methyl-1H-benzo[d]imidazol-6-yl)pyrimidin-2-yl)amino)pyridin-3-yl)methyl)piperazin-1-yl)ethyl)amino) isoindoline-1,3-dione]	< 0.05 µM	> 80%	0.05 to 0.2 µM	> 80%	< 0.05 µM	dose-dependent inhibition of cell proliferation
CC(=O)c1c(C)c2cnc(Nc3ccc(N4CCN(CCC5CCN(C(=O)Nc6ccc7c(c6)CN(C6CCC(=O)NC6=O)C7=O)CC5)CC4)cn3)nc2n(C2CCCC2)c1=O (stereo not drawn) [Compound 46, 4-(2-(4-(6-((6-acetyl-8-cyclopentyl-5-methyl-7-oxo-7,8-dihydropyrido[2,3-d]pyrimidin-2-yl)amino)pyridin-3-yl)piperazin-1-yl)ethyl)-N-(2-(2,6-dioxopiperidin-3-yl)-1-oxoisoindolin-5-yl)piperidine-1-carboxamide]	0.05 to 0.2 µM	> 60%	> 0.2 µM	> 60%	0.05 to 0.2 µM	–
Cc1nc2c(F)cc(-c3nc(Nc4ccc(CN5CCN(C6CN(c7cccc8c7C(=O)N(C7CCC(=O)NC7=O)C8=O)C6)CC5)cn4)ncc3F)cc2n1C(C)C (stereo not drawn) [Compound 98, 2-(2,6-dioxopiperidin-3-yl)-4-(3-(4-((6-((5-fluoro-4-(4-fluoro-1 isopropyl-2-methyl-1H-benzo[d]imidazol-6-yl)pyrimidin-2-yl)amino)pyridin-3-yl)methyl)piperazin-1-yl)azetidin-1-yl)isoindoline-1,3-dione]	0.05 to 0.2 µM	> 80%	0.05 to 0.2 µM	> 80%	0.05 to 0.2 µM	–
CC(=O)c1c(C)c2cnc(Nc3ccc(N4CCN(C(=O)N5CCC(CN6CCN(c7ccc8c(c7)C(=O)N(C7CCC(=O)NC7=O)C8=O)CC6)CC5)CC4)cn3)nc2n(C2CCCC2)c1=O (stereo not drawn) [Compound 11]	0.05 to 0.2 µM	> 60%	0.05 to 0.2 µM	> 60%	0.05 to 0.2 µM	–
CC(=O)c1c(C)c2cnc(Nc3ccc(N4CCN(CCC5CCN(c6ccc7c(c6)C(=O)N(C6CCC(=O)NC6=O)C7=O)CC5)CC4)cn3)nc2n(C2CCCC2)c1=O (stereo not drawn) [Compound 69, 5-(4-(2-(4-(6-((6-acetyl-8-cyclopentyl-5-methyl-7-oxo-7,8-dihydropyrido[2,3-d]pyrimidin-2-yl)amino)pyridin-3-yl)piperazin-1-yl)ethyl)piperidin-1-yl)-2-(2,6-dioxopiperidin-3-yl)isoindoline-1,3-dione]	0.05 to 0.2 µM	> 60%	0.05 to 0.2 µM	> 60%	0.05 to 0.2 µM	–
Cc1nc2c(F)cc(-c3nc(Nc4ccc(CN5CCN(C6CN(c7ccc8c(c7)C(=O)N(C7CCC(=O)NC7=O)C8=O)C6)CC5)cn4)ncc3F)cc2n1C(C)C (stereo not drawn) [Compound 147, 2-(2,6-dioxopiperidin-3-yl)-5-(3-(4-((6-((5-fluoro-4-(4-fluoro-1-isopropyl-2-methyl-1H-benzo[d]imidazol-6-yl)pyrimidin-2-yl)amino)pyridin-3-yl)methyl)piperazin-1-yl)azetidin-1-yl)isoindoline-1,3-dione]	0.05 to 0.2 µM	> 60%	< 0.05 µM	> 60%	0.05 to 0.2 µM	–
Cc1nc2c(F)cc(-c3nc(Nc4ccc(CN5CCN(C(=O)C6CCN(c7ccc8c(c7)CN(C7CCC(=O)NC7=O)C8=O)CC6)CC5)cn4)ncc3F)cc2n1C(C)C (stereo not drawn) [Compound 154]	> 0.2 µM	> 60%	0.05 to 0.2 µM	> 60%	0.05 to 0.2 µM	–
CC(=O)c1c(C)c2cnc(Nc3ccc(N4CCN(C(=O)N5CCN(C6CCN(c7ccc8c(c7)C(=O)N(C7CCC(=O)NC7=O)C8=O)CC6)CC5)CC4)cn3)nc2n(C2CCCC2)c1=O (stereo not drawn) [Compound 5, 5-(4-(4-(4-(6-((6-acetyl-8-cyclopentyl-5-methyl-7-oxo-7,8-dihydropyrido[2,3-d]pyrimidin-2-yl)amino)pyridin-3-yl)piperazine-1-carbonyl)piperazin-1-yl)piperidin-1-yl)-2-(2,6-dioxopiperidin-3-yl)isoindoline-1,3-dione]	> 0.2 µM	> 60%	> 0.2 µM	> 60%	0.05 to 0.2 µM	–
CC(=O)c1c(C)c2cnc(Nc3ccc(N4CCN(CC5CCN(C(=O)N6CCC(CN7CCN(c8ccc9c(c8)C(=O)N(C8CCC(=O)NC8=O)C9=O)CC7)CC6)CC5)CC4)cn3)nc2n(C2CCCC2)c1=O (stereo not drawn) [Compound 84, 5-(4-((1-(4-((4-(6-((6-acetyl-8-cyclopentyl-5-methyl-7-oxo-7,8-dihydropyrido[2,3-d]pyrimidin-2-yl)amino)pyridin-3-yl)piperazin-1-yl)methyl)piperidine-1-carbonyl)piperidin-4-yl)methyl)piperazin-1-yl)-2-(2,6-dioxopiperidin-3-yl) isoindoline-1,3-dione]	0.05 to 0.2 µM	> 80%	0.05 to 0.2 µM	> 80%	< 0.05 µM	–
Cc1nc2c(F)cc(-c3nc(Nc4ccc(CC5CCN(C(=O)C6CN(c7ccc(C(=O)NC8CCC(=O)NC8=O)cc7)C6)CC5)cn4)ncc3F)cc2n1C(C)C (stereo not drawn) [Compound 145, N-(2,6-dioxopiperidin-3-yl)-4-(3-(4-((6-((5-fluoro-4-(4-fluoro-1-isopropyl-2-methyl-1H-benzo[d]imidazol-6-yl)pyrimidin-2-yl)amino)pyridin-3-yl)methyl)piperidine-1-carbonyl)azetidin-1-yl)benzamide]	0.05 to 0.2 µM	> 60%	0.05 to 0.2 µM	> 60%	< 0.05 µM	–
CC(=O)c1c(C)c2cnc(Nc3ccc(C4CCN(CC5CN(c6ccc(NC7CCC(=O)NC7=O)cc6)C5)CC4)cn3)nc2n(C2CCCC2)c1=O (stereo not drawn) [Compound 128, 3-((4-(3-((4-(6-((6-acetyl-8-cyclopentyl-5-methyl-7-oxo-7,8-dihydropyrido[2,3-d]pyrimidin-2-yl)amino)pyridin-3-yl)piperidin-1-yl)methyl)azetidin-1-yl)phenyl)amino) piperidine-2,6-dione]	< 0.05 µM	> 80%	< 0.05 µM	> 80%	< 0.05 µM	–
Cc1nc2c(F)cc(-c3nc(Nc4ccc(CN5CCN(c6cccc7c6C(=O)N(C6CCC(=O)NC6=O)C7=O)CC5)cn4)ncc3F)cc2n1C(C)C (stereo not drawn) [Compound 101, 2-(2,6-dioxopiperidin-3-yl)-4-(4-((6-((5-fluoro-4-(4-fluoro-1-isopropyl-2-methyl-1H-benzo[d]imidazol-6-yl)pyrimidin-2-yl)amino)pyridin-3-yl)methyl)piperazin-1-yl)isoindoline-1,3-dione]	0.05 to 0.2 µM	> 80%	0.05 to 0.2 µM	> 60%	0.05 to 0.2 µM	–
Cc1nc2c(F)cc(-c3nc(Nc4ccc(CC5CCN(C6CCN(c7ccc(NC8CCC(=O)NC8=O)cc7)CC6)CC5)cn4)ncc3F)cc2n1C(C)C (stereo not drawn) [Compound 172, 3-((4-(4-((6-((5-fluoro-4-(4-fluoro-1-isopropyl-2-methyl-1H-benzo[d]imidazol-6-yl)pyrimidin-2-yl)amino)pyridin-3-yl)methyl)-[1,4′-bipiperidin]-1′-yl)phenyl)amino) piperidine-2,6-dione]	0.05 to 0.2 µM	> 80%	0.05 to 0.2 µM	> 80%	< 0.05 µM	–
